Measured values from patent publication US20040259912A1, “Benzine derivatives, process for preparing the same and use thereof” (priority 2001, published 2004).

Experiments:
ICR male mice [1] = test: Measurement of mouse bladder volume; type: in vivo; conditions: for Bladder volume / Bladder volume (mL): sc, 3 hours after administration, urethane anesthesia, Mean ± S.E.; for bladder volume of the mouse (result in words): subcutaneous, mouse anesthetized with urethane
Method: Measurement of Mouse Bladder Volume
Five weeks old ICR male mice were used in this test. At 3 hours after the subcutaneous administration of the drug, the abdomen of mouse was cut open under urethane anesthesia (30 mg/mouse) to expose the bladder. Physiological salt solution was infused into the bladder at the rate of 0.05 mL/minutes to check excretion reflection. All of the urine was drained off, and the physiological salt solution was infused again, and then, the bladder volume of mouse was calculated by measuring the time to urination.

[2] = system: RVR1/CHO and HVR1/CHO strains (CHO-K1 cells expressing rat VR1 / human VR1); conditions: in the presence of 1 μM of the compound; 3 hours reaction, then 20 hours culture with Alama Blue; strain (RVR1/CHO or HVR1/CHO) not specified
Method: RVR1/CHO and HVR1/CHO strains were inoculated on 96-well microplates (Corning Coaster) at a concentration of 4×10^4 cells/well, respectively and were cultured for 20 hours. After the culture was removed by suction, 180 μl of Ham's F12 medium (GIBCO BRL) containing 10% fetal calf serum (GIBCO BRL) was added to each well. Next, 20 μl of the assay buffer (Ham's F12 medium (GIBCO BRL), 0.5% BSA and 20 mM HEPES (Dojindo Molecular Technologies, Inc.), pH 7.5) containing a test compound at a final concentration of 1 μM was added to each well and the reaction was carried out in a carbon dioxide incubator for 3 hours. Subsequently, and Alama Blue (Wako Pure Chemical Industries, Ltd.) at a concentration of 25 μl was added to each well, and again cultured for 20 hours. Next, fluorescence was measured at excitation wavelength of 530 nm and fluorescence wavelength of 590 nm using multilabel counter (Wallac-Berthold, Japan), and survival rate of cell was determined.
According to the above-mentioned method, the agonist activity of test compounds was determined.

ICR male mice [3] = conditions: 0.01 mL dropped to the eye; capsaicin (0.3 μg) challenge at 1 hour; stimulating or desensitizing activity not specified
Method: Eight of 4-5 weeks old ICR male mice (Japan SLC) were used in a group. 0.01 mL of the drug was added dropwise to the eye, and the time when the mouse continued to close the eye was measured. The stimulation of the drug was evaluated as positive when the time is more than 10 seconds, and as negative when the time is less than 10 seconds. At 1 hour after the initial treatment, a solution of capsaicin (0.3 μg) was added dropwise to the eye to evaluate whether the stimulation is or not, and examined the desensitizing activity of the compound. The stimulating and desensitizing activity of the drug were calculated as a value of ED50. The drug was dissolved in a mixture of 10% ethanol, 20% Tween and 80-70% physiological salt solution.

ICR male mice [4] = conditions: subcutaneous; 55° C. water bath; time measured after 1, 3 and 6 hours
Method: Four to five weeks old ICR male mice (Japan SLC) were used in this test. The mouse was put into a retainer, the tail end was dipped into 55° C. water bath, and the time until the tail end rose to the surface was measured. The time was previously measured before the administration of the drug, and the mouse having the time of less than 2 seconds were selected and used in the test. Cut-off time was set to 10 seconds. The drug was administered subcutaneously, and the time was measured after 1, 3 and 6 hours to evaluate the effects of the drug. The drug was dissolved in a mixture of 10% ethanol, 20% Tween and 80-70% physiological salt solution.

C=C(C)[C@]12C[C@@H](C)[C@@]34O[C@](Cc5ccccc5)(O[C@@H]1[C@@H]3C=C(COC(=O)Cc1ccc(O)c(OC)c1)C[C@]1(O)C(=O)C(C)=C[C@@H]41)O2 [Resiniferatoxin, resiniferatoxin, reference compound]
Bladder volume (ICR male mice [1]; 0.03 mg/kg): 0.24 ± 0.04 mL | Bladder volume (mL) (ICR male mice [1]; 0.1 mg/kg, *p ≦ 0.05 vs. vehicle): 0.39 ± 0.04* mL | bladder volume of the mouse (result in words) (ICR male mice [1]): increased significantly

CCC(=O)c1cc(NC(=O)Nc2ccc(OC)c(OC)c2)ccc1OC(c1ccccc1)c1ccccc1 [Example 2, N-[(4-Benzhydryloxy)-3-propionylphenyl]-N′-(3,4-dimethoxyphenyl)urea]
survival rate of the cells [2]: 0% | ED50 (ICR male mice [3]): 2.2 µg | Minimum effective dose (ICR male mice [4]): 1 mg/kg

COC(=O)c1cc(NC(=O)Nc2ccccc2)ccc1OC(c1ccccc1)c1ccccc1 [Example 22, Methyl 5-(anilinocarbonylamino)-2-benzhydryloxybenzoate]
Bladder volume (ICR male mice [1]; 3 mg/kg): 0.17 ± 0.03 mL | Bladder volume (mL) (ICR male mice [1]; 10 mg/kg, *p ≦ 0.05 vs. vehicle): 0.28 ± 0.05* mL | Bladder volume (mL) (ICR male mice [1]; 100 mg/kg, **p ≦ 0.01 vs. vehicle): 0.31 ± 0.06** mL | bladder volume of the mouse (result in words) (ICR male mice [1]): increased significantly
